These results are taken from patent publication US7670784B2, “β-Benzyloxyaspartic acid derivatives having two substituents on their benzene rings” (Suntory Holdings Limited, priority 2004, dated 2010).

Assay [1] has as its target T1, human EAAT2 (Homo sapiens, UniProt P43004).
T1 construct: expressed in transfected cells; host or cells: MDCK (Madin-Darby Canine Kidney) cells
The assay is described as follows: [14C]glutamate uptake inhibition in human EAAT2 constitutively expressed in MDCK cells. It is filed as cell-based. The conditions noted are these: 1 μM L-[14C]glutamate, 12 minutes incubation. The procedure:
(§1) According to the known method (Shimamoto, K. et al., Mol. Pharmacol. 53, 195-201, 1998; Bioorg. Med. Chem. Lett. 10, 2407-2410, 2000), the inhibitory effect against [^14C]glutamate uptake was measured in human EAAT2 or EAAT3 constitutively expressed in MDCK (Madin-Darby Canine Kidney) cells. Glutamate uptake activity was determined as follows: 1 μM L-[^14C]glutamate and a sample at a given concentration were added and incubated for 12 minutes, followed by solubilizing the cells to measure incorporated radioactivity with a liquid scintillator. The amount of uptake was expressed as a percentage, assuming that uptake in the absence of a test compound (buffer alone) was set to 100% and uptake in a sodium-free solution was set to 0%.

Assay [2] concerns the target T2, human EAAT3 (Homo sapiens, UniProt P43005).
T2 construct: expressed in transfected cells; host or cells: MDCK (Madin-Darby Canine Kidney) cells
T2 sequence (P43005 1-524): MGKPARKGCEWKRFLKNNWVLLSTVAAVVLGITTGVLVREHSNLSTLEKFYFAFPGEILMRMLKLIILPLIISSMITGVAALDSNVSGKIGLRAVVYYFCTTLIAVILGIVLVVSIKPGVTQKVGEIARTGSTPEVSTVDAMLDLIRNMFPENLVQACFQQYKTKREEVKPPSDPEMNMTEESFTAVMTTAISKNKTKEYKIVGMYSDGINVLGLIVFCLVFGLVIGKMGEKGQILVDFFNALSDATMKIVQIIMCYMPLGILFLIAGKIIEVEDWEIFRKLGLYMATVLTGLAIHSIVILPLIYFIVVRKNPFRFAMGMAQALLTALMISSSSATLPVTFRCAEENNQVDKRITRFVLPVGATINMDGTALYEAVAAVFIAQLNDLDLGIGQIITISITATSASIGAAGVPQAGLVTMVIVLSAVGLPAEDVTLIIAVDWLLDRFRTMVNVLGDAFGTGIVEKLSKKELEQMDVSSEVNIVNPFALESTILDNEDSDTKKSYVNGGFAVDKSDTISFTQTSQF
The assay is described as follows: [14C]glutamate uptake inhibition in human EAAT3 constitutively expressed in MDCK cells. The settings on record: 1 μM L-[14C]glutamate, 12 minutes incubation. It is filed as cell-based. The procedure: as §1

For assay [3], the system named is glutamate transporters. The conditions noted are these: Shimamoto et al., Mol. Pharmacol. 65, 2004; cited from earlier work.

T1 sequence (P43004 whole entry): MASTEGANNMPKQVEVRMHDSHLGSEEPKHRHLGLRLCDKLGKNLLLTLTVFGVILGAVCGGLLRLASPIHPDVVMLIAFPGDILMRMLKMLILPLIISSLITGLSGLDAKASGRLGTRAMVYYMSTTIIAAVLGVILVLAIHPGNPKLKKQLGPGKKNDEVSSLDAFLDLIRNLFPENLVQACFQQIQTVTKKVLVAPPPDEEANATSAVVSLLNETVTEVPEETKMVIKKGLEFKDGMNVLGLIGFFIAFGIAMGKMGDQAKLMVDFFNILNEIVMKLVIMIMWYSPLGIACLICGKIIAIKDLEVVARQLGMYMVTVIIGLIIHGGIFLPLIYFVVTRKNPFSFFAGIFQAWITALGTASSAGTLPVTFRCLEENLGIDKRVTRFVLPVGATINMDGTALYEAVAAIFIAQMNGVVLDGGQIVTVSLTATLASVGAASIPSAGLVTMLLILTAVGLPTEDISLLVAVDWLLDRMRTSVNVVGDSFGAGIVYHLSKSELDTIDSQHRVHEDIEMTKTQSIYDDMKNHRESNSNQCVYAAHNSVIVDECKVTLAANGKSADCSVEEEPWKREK

By IC50 is commonly meant the midpoint of a concentration-inhibition curve. A high value points to a need for much substance. In the case of `NCCOCCOCCOCCOCC(=O)NCCCCCC(=O)NCCCCCC(=O)Nc1cc(CO[C@H](C(=O)O)[C@H](N)C(=O)O)cc(NC(=O)c2ccc(C(F)(F)F)cc2)c1` [Compound 10, (2S,3S)-3-(3-(6-(6-(2-(2-(2-(2-(2-aminoethoxy)ethoxy)ethoxy)ethoxy)acetamido)hexanamido)hexanamido)-5-(4-(trifluoromethyl)benzamido)benzyloxy)aspartic acid], the IC50 in assay [1] is 23 nM; in assay [2] it was 805 nM. As for `N[C@H](C(=O)O)[C@H](OCc1cccc(NC(=O)c2ccc(C(F)(F)F)cc2)c1)C(=O)O` [TFB-TBOA], the “IC50 value for uptake inhibitory activity” value in assay [3] is “in the order of nM”. Turning to `CCC(=O)Nc1cc(CO[C@H](C(=O)O)[C@H](N)C(=O)O)cc(NC(=O)c2ccc(C(F)(F)F)cc2)c1` [Compound 14, (2S,3S)-3-(3-propionylamido-5-[4-(trifluoromethyl)benzamido]benzyloxy)aspartic acid], the IC50 in assay [1] was 4.7 nM; in assay [2] it was 112 nM. The like results for `N[C@H](C(=O)O)[C@H](OCc1ccccc1)C(=O)O` [L-TBOA, L-threo-β-benzyloxyaspartic acid, reference compound] were, in that order, 1300 nM and 1300 nM.

In the case of `N[C@H](C(=O)O)[C@H](OCc1cc(NC(=O)c2ccc(C(F)(F)F)cc2)cc(NC(=O)c2ccc(C(F)(F)F)cc2)c1)C(=O)O` [Compound 11, (2S,3S)-3-{3,5-bis[4-(trifluoromethyl)benzamido]benzyloxy}aspartic acid], the figures for the IC50 in assay [1] and in assay [2] were 1.3 nM and 0.46 nM, respectively.
